According to patent publication US8372807B2, “Methods of modulating uric acid levels” (Ardea Biosciences, Inc., priority 2009, dated 2013):

molecular target: T1, hURAT1 transporter (URAT-1) (Homo sapiens, UniProt Q96S37); assay: Uric Acid Uptake Assay (URAT-1 EC50); assay type: cell-based; conditions: HEK293/urat1 cells, C14 uric acid uptake, 40 μM uric acid, 10 minutes at room temperature
T1 construct: Full-length human URAT1 gene (SLC22A12) was subcloned from plasmid pCMV6-XL5
T1 sequence (Q96S37 1-553): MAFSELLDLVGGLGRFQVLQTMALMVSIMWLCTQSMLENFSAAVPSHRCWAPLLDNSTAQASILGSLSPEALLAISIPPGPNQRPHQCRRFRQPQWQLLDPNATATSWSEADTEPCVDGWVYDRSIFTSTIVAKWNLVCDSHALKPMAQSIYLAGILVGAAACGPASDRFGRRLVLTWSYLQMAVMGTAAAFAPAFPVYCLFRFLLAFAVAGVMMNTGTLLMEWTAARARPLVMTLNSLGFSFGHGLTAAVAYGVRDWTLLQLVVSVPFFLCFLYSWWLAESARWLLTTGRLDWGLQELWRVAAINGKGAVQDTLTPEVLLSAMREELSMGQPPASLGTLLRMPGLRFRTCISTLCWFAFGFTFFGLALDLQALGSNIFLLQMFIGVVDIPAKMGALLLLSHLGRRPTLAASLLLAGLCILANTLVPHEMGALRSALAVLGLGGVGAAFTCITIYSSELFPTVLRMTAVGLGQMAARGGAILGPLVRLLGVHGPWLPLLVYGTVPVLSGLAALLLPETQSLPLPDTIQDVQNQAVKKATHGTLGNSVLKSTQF
Description: Uric Acid Uptake Assay (URAT-1 EC50)
Creation of Stable Cell Lines Expressing hURAT1 Transporter: Full-length human URAT1 gene (SLC22A12) was subcloned from plasmid pCMV6-XL5 (Origene) into eukaryotic expression plasmid pCMV6/Neo (Origene) using Not I restriction sites. Gene sequencing confirmed the sequence of hURAT1 as outlined in Genbank (Accession #NM_144585.2). HEK293 human embryonic kidney cells (ATCC#CRL-1573) were propagated in EMEM tissue culture medium as described by ATCC in an atmosphere of 5% CO2 and 95% air. Transfections of HEK293 cells with the pCMV6/Neo/URAT1 construct were performed using L2000 transfection reagent (Invitrogen) as described by the manufacturer. After 24 h the transfected cells were split into 10 cm tissue culture plates and grown for 1 day after which the medium was replaced with fresh growth medium containing G418 (Gibco) at 0.5 mg/ml final concentration. Drug-resistant colonies were selected after approximately 8 days and then tested for ^14C-uric acid transport activity. The HEK293/urat1 cells are plated on Poly-D-Lysine Coated 96-well Plates at a density of 75,000 cells per well.
Cells were grown overnight (20-26 hours) at 37° C. in an incubator. Plates were allowed to come to room temperature and media was washed out with one wash of 250 μl of Wash Buffer (125 mM Na Gluconate, 10 mM Hepes pH 7.3). Compound or vehicle is added in assay buffer with C14 Uric Acid for a final concentration of 40 μM Uric Acid with a specific activity of 54 mCi/mmol Assay Buffer is 125 mM Sodium Gluconate, 4.8 mM Potassium Gluconate, 1.2 mM Potassium phosphate, monobasic, 1.2 mM magnesium sulfate, 1.3 mM Ca Gluconate, 5.6 mM Glucose, 25 mM HEPES, pH 7.3. Plates were incubated at room temperature for 10 minutes then washed 3 times with 50 μl Wash Buffer and 3 times with 250 μl Wash Buffer. Microscint 20 Scintillation Fluid was added and plates were incubated overnight at 45° C. to equilibrate. Plates are then read on the TopCount Plate Reader and an EC50 value generated. (See Enomoto et al, Nature, 2002, 417, 447-451 and Anzai et al, J. Biol. Chem., 2004, 279, 45942-45950.)
Compounds prepared as described above in examples 24-32, were examined according to the procedure described herein and EC50 values generated. The table below summarizes the activity of the compounds in the Uric Acid Uptake Assay, wherein

| SMILES | EC50 [µM] |
| --- | --- |
| CCOC(=O)C(C)(C)Oc1n[nH]c(C)c1-c1cccc2ccccc12 [26 (step C), Ethyl 2-methyl-2-(5-methyl-4-(naphthalen-1-yl)-1H-pyrazol-3-yloxy)propanoate] | < 5 |
| Cc1[nH]nc(OC(C)(C)C(=O)O)c1-c1cccc2ccccc12 [26 (step D), 2-methyl-2-(5-methyl-4-(naphthalen-1-yl)-1H-pyrazol-3-yloxy)propanoic acid] | < 5 |
| CC(C)(Oc1ccnn1-c1cccc2ccccc12)C(=O)O [Example 24, 2-Methyl-2-(1-(naphthalen-1-yl)-1H-pyrazol-5-yloxy)propanoic acid] | 5 to 20 |

Results, then the compound that gave them:

| EC50 [µM] | SMILES |
| --- | --- |
| < 5 | CC(C)(Sc1ccnn1-c1cccc2ccccc12)C(=O)O [Example 25, 2-Methyl-2-(1-(naphthalen-1-yl)-1H-pyrazol-5-ylthio)propanoic acid] |
| 5 to 20 | O=C(O)CSc1snnc1-c1cccc2ccccc12 [Example 32, 2-(4-(Naphthalen-1-yl)-1,2,3-thiadiazol-5-ylthio)acetic acid] |
| < 5 | CC(C)(Sc1nnnn1-c1cccc2ccccc12)C(=O)O [Example 30, 2-Methyl-2-(1-(naphthalen-1-yl)-1H-tetrazol-5-ylthio)propanoic acid] |
| < 5 | CC(C)(Sc1cnnn1-c1cccc2ccccc12)C(=O)O [Example 28, 2-Methyl-2-(1-(naphthalen-1-yl)-1H-1,2,3-triazol-5-ylthio)propanoic acid] |
